Results taken from PMC11172314, “Towards Enhanced Tunability of Aqueous Biphasic Systems: Furthering the Grasp of Fluorinated Ionic Liquids in the Purification of Proteins” (International Journal of Molecular Sciences, 2024).

Molecular target: T1, lysozyme (Lys) (Gallus gallus, UniProt P00698)
T1 construct: Lyophilized lysozyme from chicken egg white, ≥90% purity; purchased Millipore (Darmstadt, Germany); host or cells: chicken egg white (natural source)
Assay: Far-UV CD secondary structure content of lysozyme (K2D deconvolution)
Set-up: species or system chicken; Lys α-helix content / Lys β-sheet content / Lys random coil content / α-helix content / β-sheet content / Random coil content: unit not given here
Details: 1.0 mg/ml Lys, 25 °C
Method: Circular dichroism (CD) spectroscopy is broadly applied to assess the secondary structure of proteins because different structural elements have characteristic CD spectra. […] For [C4C1Im][CF3SO3] (mere fluoro-containing IL), the structural content was estimated for the concentration range (0.1–200 mM). […] FIL and [ N1112(OH) ][H2PO4] […] No substantial protein structural modification upon the ABS phase-forming component addition was verified.
Circular dichroism (CD) spectra were collected in a 10 mm quartz cuvette and a Chirascan spectropolarimeter (Applied Photophysics, Leatherhead, UK) at room temperature. All CD spectra were recorded in far-UV 190 to 260 nm at scan rates of 50 nm/min, 4 accumulations, and a response time of 3 s. Each CD experiment involved the acquisition and combination of two distinct duplicates. […] Spectral deconvolution was carried out with Dichroweb using the K2D algorithm.

T1 sequence (P00698 19-147): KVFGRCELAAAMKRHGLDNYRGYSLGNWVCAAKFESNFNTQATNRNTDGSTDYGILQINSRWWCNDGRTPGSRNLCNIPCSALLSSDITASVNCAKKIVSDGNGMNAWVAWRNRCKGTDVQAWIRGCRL

CCCCn1cc[n+](C)c1.O=S(=O)([O-])C(F)(F)F [[C4C1Im][CF3SO3]]
0.56: Lys random coil content (0.1 mM component) | Lys random coil content (90 mM component) | Lys random coil content (120 mM component)
0.55: Lys random coil content (200 mM component)
0.29: Lys α-helix content (200 mM component)
0.16: Lys β-sheet content (200 mM component)
0.57: Lys random coil content (1 mM component) | Lys random coil content (5 mM component) | Lys random coil content (25 mM component) | Lys random coil content (55 mM component)
0.15: Lys β-sheet content (0.1 mM component) | Lys β-sheet content (1 mM component) | Lys β-sheet content (5 mM component) | Lys β-sheet content (25 mM component) | Lys β-sheet content (55 mM component) | Lys β-sheet content (90 mM component) | Lys β-sheet content (120 mM component)
0.28: Lys α-helix content (0.1 mM component) | Lys α-helix content (1 mM component) | Lys α-helix content (5 mM component) | Lys α-helix content (25 mM component) | Lys α-helix content (55 mM component) | Lys α-helix content (90 mM component) | Lys α-helix content (120 mM component)
